Measured values: patent US20090069230A1, “GDNF-DERIVED PEPTIDES” (The Research Foundation of State University of New York, priority 2007, published 2009)

Tested on: C6 glial cells
Assay: Ca2+ mobilization in GDNF peptide-treated C6 glial cells (Calcium Crimson-AM fluorescence)
Type: cell-based
Conditions: for change in Ca2+ mobilization relative to control samples: external Ca2+ containing buffer, FIG. 6; for change in Ca2+ mobilization relative to control samples / change in fluorescence relative to the control sample: peptide 1 7.0 μM, peptide 2 2.3 μM, peptide 3 0.8 μM; for change in fluorescence relative to the control sample: external Ca2+ free buffer, FIG. 5
Procedure: We evaluated the ability of the GDNF peptides to activate G-protein associated transmembrane receptors. C6 glial cells were incubated with GDNF peptides, either singly or in combination, and calcium mobilization was monitored as a index of receptor activation.
GDNF peptides were custom synthesized via automated solid-phase methods using FMOC chemistry, HPLC purified, and characterized at the Small Peptide Synthesis Resource of the KECK Facility at Yale University. C6 glial cells were cultured to 80% confluency in the presence of GDNF peptides and loaded with the Ca^2+-sensitive fluorescent indicator dye, Calcium Crimson-AM (5 μM dye in Me2SO) at 37° C. for 20 min. Approximately 10^3 cells were then transferred into a quartz cuvette and the change in intracellular fluorescence was monitored in real time using an ISI Fluorescence spectrophotometer with an excitation wavelength of 590 nm. Emissions were monitored at 615 nm. An increase in fluorescence units was indicative of a rise in internal calcium.
C6 glial cells were cultured as above and incubated in increasing concentrations (0.8 μM; 1.6 μM; 2.4 μM; 3.2 μM and 4.0 μM) of GDNF-derived peptide (FPLPA (SEQ ID NO:4)). Fluorescence was measured according to the method in Example 3.
C6 glial cells were cultured as above and incubated in increasing concentrations (7.0 μM; 14 μM; 21 μM; 28 μM and 35 μM) of GDNF-derived peptide (PPEAPAEDRSL (SEQ ID NO:5)). Fluorescence was measured according to the method in Example 3.
C6 glial cells were cultured as above except that no Ca^2+ was present in the media. Cells were incubated with GDNF-derived peptides according to the experimental design indicated in Table 2 and the combinations in FIG. 5. Fluorescence was measured according to the method in Example 3.
C6 glial cells were cultured according to the method in Example 3. Cells were incubated with GDNF-derived peptides according to the experimental design indicated in Table 2 and the combinations in FIG. 6. Fluorescence was measured according to the method in Example 3.

Substance | Ca2+ mobilization (fluorescence), dose response (FPLPA at 0.8, 1.6, 2.4, 3.2 and 4.0 μM, FIG. 3) | change in Ca2+ mobilization relative to control samples | change in fluorescence relative to the control sample | Ca2+ mobilization (fluorescence), dose response (PPEAPAEDRSL at 7.0, 14, 21, 28 and 35 μM, FIG. 4)
FPLPA (listed as Homo sapiens) [GDNF-derived peptide, 5-mer] | dose-dependent increase in Ca^2+ mobilization at peptide concentrations up to 3.2 μM, followed by a decrease at 4.0 μM | decrease in Ca^2+ mobilization | moderate increases | 
ERNRQAAAANPENSRGK (listed as Homo sapiens) [GDNF-derived peptide, 17-mer] |  | decrease in Ca^2+ mobilization | moderate increases | 
PPEAPAEDRSL (listed as Homo sapiens) [GDNF-derived peptide, 11-mer] |  | increase in Ca^2+ mobilization | moderate increases | dose-dependent increase in Ca^2+ mobilization
